# Data published in patent EP4667483A1, “HUMAN TRANSFERRIN RECEPTOR-BINDING PEPTIDE” (JCR Pharmaceuticals Co., Ltd., priority 2023, dated 2024).
# Read-outs that look alike come from different tables or passages of the source. Bridge positions count the residues as written; N and C are the ends. Square brackets hold non-standard residues; d marks the D form. Peptide text beside a SMILES is read from it. * marks the point of attachment. CH2CO(D-glucamine) = O=C(C*)NC[C@H](O)[C@@H](O)[C@H](O)[C@H](O)CO; NH(1-deoxy-D-glucityl) = OC[C@@H](O)[C@@H](O)[C@H](O)[C@@H](O)CN*; NMePhe(3-Cl) = CN[C@@H](Cc1cccc(Cl)c1)C(=O)O; NMeW = CN[C@@H](Cc1c[nH]c2ccccc12)C(=O)O; NMeY = CN[C@@H](Cc1ccc(O)cc1)C(=O)O; Nva(3-Et) = CCC(CC)[C@H](N)C(=O)O; PEG4 = NCCOCCOCCOCCOCCC(=O)O
# Molecular target: human transferrin receptor (hTfR) (Homo sapiens, UniProt P02786)
# Sequence (P02786 whole entry): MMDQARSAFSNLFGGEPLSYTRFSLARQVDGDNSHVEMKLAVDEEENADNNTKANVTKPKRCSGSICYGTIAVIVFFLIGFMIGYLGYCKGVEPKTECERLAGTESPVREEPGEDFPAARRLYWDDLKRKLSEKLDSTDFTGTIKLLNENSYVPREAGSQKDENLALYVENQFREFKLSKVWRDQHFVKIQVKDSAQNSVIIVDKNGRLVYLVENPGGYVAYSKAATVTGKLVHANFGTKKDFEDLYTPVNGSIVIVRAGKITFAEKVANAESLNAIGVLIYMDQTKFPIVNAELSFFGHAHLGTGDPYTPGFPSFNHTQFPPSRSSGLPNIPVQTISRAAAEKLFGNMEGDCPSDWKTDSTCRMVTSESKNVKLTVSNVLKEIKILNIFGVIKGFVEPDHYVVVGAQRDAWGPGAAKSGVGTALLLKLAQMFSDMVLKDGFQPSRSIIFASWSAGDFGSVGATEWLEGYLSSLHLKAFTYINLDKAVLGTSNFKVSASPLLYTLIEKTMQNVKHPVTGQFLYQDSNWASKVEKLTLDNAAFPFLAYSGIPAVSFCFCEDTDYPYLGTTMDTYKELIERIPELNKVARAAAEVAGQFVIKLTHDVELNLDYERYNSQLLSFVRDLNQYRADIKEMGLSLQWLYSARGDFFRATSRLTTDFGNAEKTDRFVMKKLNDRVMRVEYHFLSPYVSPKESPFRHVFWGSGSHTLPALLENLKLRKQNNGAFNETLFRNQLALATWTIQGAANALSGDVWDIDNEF
# Experiment: SPR measurement under pH 6.0 conditions (Biacore T200, NTA chip, immobilized hTfR)
# Type: binding
# Details: read-out: hTfR SPR pH6.0 KD
# Experimental: Molecular interactions between the synthesized peptides and the transferrin receptor (hTfR) were evaluated by surface plasmon resonance (SPR) using the following method. The specific assay procedure is described below.
# An NTA sensor chip (Cytiva) was inserted in a Biacore T200 (Cytiva), a priming operation was performed 3 times with a running buffer: HBS-P+ pH 6.0 (Cytiva), and an equilibrium state was created at a flow rate of 30 µL/min. A ligand immobilization operation was carried out at a flow rate of 10 µL/min.
# The surface of the NTA sensor chip was washed with 350 mM EDTA solution, nickel ions were loaded into the carbomethyldextran chains of the sensor chip with a 500 µM aqueous nickel chloride solution, and then washing was performed with 3 mM EDTA solution. After mixing 50 µL of each of 60 mM EDC solution (Cytiva) and 650 mM NHS solution (Cytiva), the mixture was reacted for 420 seconds at a flow rate of 10 µL/min. 150 µL of 0.2 µM hTfR solution was prepared by diluting with 10 mM acetic acid solution (pH 5.0), and reacted for 420 seconds at a flow rate of 10 µL/min to immobilize hTfR on the NTA sensor chip. For the human transferrin receptor (hTfR), the recombinant hTfR described in Example 2 of WO2018/124121 was used. After immobilization, capping was performed by reacting with 1.0 M ethanolamine aqueous solution (Cytiva) at a flow rate of 10 µL/min for 420 seconds. Peptide lysate prepared in DMSO to 10 mM was diluted with the running buffer to a final concentration of 10 µM peptide lysate, and then peptide solutions of 250 nM, 125 nM, 62.5 nM, 25 nM, and 12.5 nM were prepared. The kinetics of the peptide against hTfR was obtained by SPR measurement using the above samples.
# The kinetic evaluation model was single-cycle kinetics, and curve fitting was performed using Biacore T200 Evaluation Software Version 3.0 (Cytiva). The binding of the peptide to hTfR was evaluated by performing curve fitting on the obtained sensorgram by the least squares method and obtaining the kon value, the koff value, and the KD value.
# [1] = SPR, pH 6.0, peptide with the linker named in the table
Structure (SMILES),"Kd (pH 6.0, single-cycle kinetics)",Kd [1],other results
CCC(CC)[C@@H]1NC(=O)[C@H](Cc2ccc(NCC(=O)O)nc2)NC(=O)[C@H](Cc2ccc(O)cc2)NC(=O)[C@H](CC(N)=O)NC(=O)[C@H](Cc2cn(CC(=O)O)c3ccccc23)NC(=O)[C@H](C(C)C)NC(=O)[C@H](Cc2cccc(Cl)c2)N(C)C(=O)[C@H](C(C)C)NC(=O)[C@H](C)NC(=O)CSC[C@@H](C(=O)NCCOCCOCCOCCOCCC(N)=O)NC(=O)[C@H](Cc2ccc(O)cc2)N(C)C(=O)[C@H](Cc2cccc(C(=O)O)c2)NC(=O)[C@H](CCCNC(=N)N)NC(=O)[C@H](CCC(N)=O)NC(=O)[C@H]([C@@H](C)CC)NC1=O [compound 151],,,"Kd (SPR, pH 6.0, Table 2-1-2): 0.0482 µM"
CC[C@H](C)[C@@H]1NC(=O)[C@H](Cc2ccc(OC)cc2)NC(=O)[C@H](CCCNC(=N)N)NC(=O)[C@H](CC(N)=O)NC(=O)[C@H](Cc2c[nH]c3ccccc23)N(C)C(=O)[C@H](C(C)C)NC(=O)[C@H](Cc2cccc(Cl)c2)N(C)C(=O)[C@H](C(C)C)NC(=O)[C@H](C)NC(=O)CSC[C@@H](C(=O)NCCOCCOCCOCCOCCC(N)=O)NC(=O)[C@H](Cc2ccc(O)cc2)N(C)C(=O)[C@H](Cc2ccccc2)NC(=O)[C@H](CCCNC(=N)N)NC(=O)[C@H](CCCCN)NC(=O)[C@H]([C@@H](C)CC)NC1=O [compound 173] ({CH2CO}-AV[NMePhe(3-Cl)]V[NMeW]NRY(Me)IIKRF[NMeY]C[PEG4]-NH2; thioether N-15),0.0133 µM,,
CCC(CC)[C@@H]1NC(=O)[C@H](Cc2ccc(OCC(=O)O)cc2)NC(=O)[C@H](Cc2ccc(NCC(=O)O)nc2)NC(=O)[C@H](CC(N)=O)NC(=O)[C@H](Cc2cn(CC(=O)O)c3ccccc23)NC(=O)[C@H](C(C)C)NC(=O)[C@H](Cc2cccc(Cl)c2)N(C)C(=O)[C@H](C(C)C)NC(=O)[C@H](C)NC(=O)CSC[C@@H](C(=O)NCCOCCOCCOCCOCCC(N)=O)NC(=O)[C@H](Cc2ccc(O)cc2)N(C)C(=O)[C@H](Cc2cccc(C(=O)O)c2)NC(=O)[C@H](CCCNC(=N)N)NC(=O)[C@H](CCC(N)=O)NC(=O)[C@H]([C@@H](C)CC)NC1=O [compound 150],,,"Kd (SPR, pH 6.0, Table 2-1-2): 0.0589 µM"
CCC(CC)[C@@H]1NC(=O)[C@H](Cc2ccc(O)cc2)NC(=O)[C@H](Cc2ccc(O)cc2)NC(=O)[C@H](CC(N)=O)NC(=O)[C@H](Cc2c[nH]c3ccccc23)N(C)C(=O)[C@H](C(C)C)NC(=O)[C@H](Cc2cccc(Cl)c2)N(C)C(=O)[C@H](C(C)C)NC(=O)[C@H](C)NC(=O)CSC[C@@H](C(=O)NCCOCCOCCOCCOCCC(N)=O)NC(=O)[C@H](Cc2ccc(O)cc2)N(C)C(=O)[C@H](Cc2ccc(O)cc2)NC(=O)[C@H](CCCNC(=N)N)NC(=O)[C@H](CCCCN)NC(=O)[C@H](CO)NC1=O [compound 132] ({CH2CO}-AV[NMePhe(3-Cl)]V[NMeW]NYY[Nva(3-Et)]SKRY[NMeY]C[PEG4]-NH2; thioether N-15),,0.0132 µM,
CC[C@H](C)[C@@H]1NC(=O)[C@H](Cc2ccc(O)cc2)NC(=O)[C@H](Cc2ccc(N)nc2)NC(=O)[C@H](CC(N)=O)NC(=O)[C@H](Cc2c[nH]c3ccccc23)NC(=O)[C@H](C(C)C)NC(=O)[C@H](Cc2ccccc2)N(C)C(=O)[C@H](C(C)C)NC(=O)[C@H](C)NC(=O)CSC[C@@H](C(=O)NCCOCCOCCOCCOCCC(N)=O)NC(=O)[C@H](Cc2ccc(O)cc2)N(C)C(=O)[C@H](Cc2ccc(O)cc2)NC(=O)[C@H](CCCNC(=N)N)NC(=O)[C@H](CCCCN)NC(=O)[C@H]([C@@H](C)CC)NC1=O [compound 123],,0.0174 µM,
CCC(CC)[C@@H]1NC(=O)[C@H](Cc2ccc(O)cc2)NC(=O)[C@H](Cc2ccc(O)cc2)NC(=O)[C@H](CC(N)=O)NC(=O)[C@H](Cc2c[nH]c3ccccc23)N(C)C(=O)[C@H](C(C)C)NC(=O)[C@H](Cc2ccccc2)N(C)C(=O)[C@H](C(C)C)NC(=O)[C@H](C)NC(=O)CSC[C@@H](C(=O)NCCOCCOCCOCCOCCC(N)=O)NC(=O)[C@H](Cc2ccc(O)cc2)N(C)C(=O)[C@H](Cc2ccc(O)cc2)NC(=O)[C@H](CCCNC(=N)N)NC(=O)[C@H](CCCCN)NC(=O)[C@H]([C@@H](C)CC)NC1=O [compound 117],,0.0138 µM,
CC[C@H](C)[C@@H]1NC(=O)[C@H](Cc2ccc(OC)cc2)NC(=O)[C@H](Cc2ccc(O)cc2)NC(=O)[C@H](CC(N)=O)NC(=O)[C@H](Cc2c[nH]c3ccccc23)N(C)C(=O)[C@H](C(C)C)NC(=O)[C@H](Cc2cccc(Cl)c2)N(C)C(=O)[C@H](C(C)C)NC(=O)[C@H](C)NC(=O)CSC[C@@H](C(=O)NCCOCCOCCOCCOCCC(N)=O)NC(=O)[C@H](Cc2ccc(O)cc2)N(C)C(=O)[C@H](Cc2ccccc2)NC(=O)[C@H](CCCNC(=N)N)NC(=O)[C@H](CCC(=O)NCCCN)NC(=O)[C@H]([C@@H](C)CC)NC1=O [compound 171],0.000678 µM,,
CC[C@H](C)[C@@H]1NC(=O)[C@H](Cc2ccc(OCC(=O)NC[C@H](O)[C@@H](O)[C@H](O)[C@H](O)CO)cc2)NC(=O)[C@H](Cc2ccc(O)cc2)NC(=O)[C@H](CC(N)=O)NC(=O)[C@H](Cc2c[nH]c3ccccc23)NC(=O)[C@H](C(C)C)NC(=O)[C@H](Cc2cccc(Cl)c2)N(C)C(=O)[C@H](C(C)C)NC(=O)[C@H](C)NC(=O)CSC[C@@H](C(=O)NCCOCCOCCOCCOCCC(N)=O)NC(=O)[C@H](Cc2ccc(O)cc2)N(C)C(=O)[C@H](Cc2ccccc2)NC(=O)[C@H](CCC(N)=O)NC(=O)[C@H](CCC(=O)NC[C@H](O)[C@@H](O)[C@H](O)[C@H](O)CO)NC(=O)[C@H]([C@@H](C)CC)NC1=O [compound 39] ({CH2CO}-AV[NMePhe(3-Cl)]VWNYY(CH2CO(D-glucamine))IIE(NH(1-deoxy-D-glucityl))QF[NMeY]C[PEG4]-NH2; thioether N-15),0.0124 µM,,
CC[C@H](C)[C@@H]1NC(=O)[C@H](Cc2ccc(O)cc2)NC(=O)[C@H](Cc2ccc(N)nc2)NC(=O)[C@H](CC(N)=O)NC(=O)[C@H](Cc2c[nH]c3ccccc23)N(C)C(=O)[C@H](C(C)C)NC(=O)[C@H](Cc2ccccc2)N(C)C(=O)[C@H](C(C)C)NC(=O)[C@H](C)NC(=O)CSC[C@@H](C(=O)NCC(=O)N[C@H](CCC(=O)O)C(=O)N[C@H](CCC(=O)O)C(=O)N[C@H](CCC(=O)O)C(=O)N[C@H](CO)C(=O)N[C@H](CO)C(=O)N[C@@H](CCCCN=[N+]=[N-])C(N)=O)NC(=O)[C@H](Cc2ccc(C(=O)O)cc2)N(C)C(=O)[C@H](Cc2ccc(O)cc2)NC(=O)[C@H](CCCNC(=N)N)NC(=O)[C@H](CCCCN)NC(=O)[C@H]([C@@H](C)CC)NC1=O [compound 186],,,"Kd (SPR, pH 6.0, Table 1-3-2-2): 0.145 µM"
